One compound from paper PMC5548612 (Drug and alcohol dependence, 2017) can be followed below.

SMILES strings stand for the structures.

What all share (assay): competitive radioligand binding
One test deals with 5-HT2B receptor (Homo sapiens, UniProt P41595).
A further test addresses T1, 5-HT2C receptor (Homo sapiens, UniProt P28335).
T1 sequence (P28335 33-458): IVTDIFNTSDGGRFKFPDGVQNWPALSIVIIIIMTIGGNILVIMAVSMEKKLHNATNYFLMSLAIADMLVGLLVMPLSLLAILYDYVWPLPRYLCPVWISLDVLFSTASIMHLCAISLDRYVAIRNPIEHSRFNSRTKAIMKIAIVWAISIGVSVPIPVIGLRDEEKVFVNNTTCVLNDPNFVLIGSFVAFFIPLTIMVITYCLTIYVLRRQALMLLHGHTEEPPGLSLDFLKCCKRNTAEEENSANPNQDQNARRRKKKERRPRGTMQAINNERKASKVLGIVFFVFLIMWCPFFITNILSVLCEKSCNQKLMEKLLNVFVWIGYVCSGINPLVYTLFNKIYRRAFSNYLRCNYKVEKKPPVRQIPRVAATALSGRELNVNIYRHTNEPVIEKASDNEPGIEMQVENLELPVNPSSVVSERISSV

For a further test, the target named is sigma-1 receptor.

5-HT2B receptor, sequence (P41595 whole entry): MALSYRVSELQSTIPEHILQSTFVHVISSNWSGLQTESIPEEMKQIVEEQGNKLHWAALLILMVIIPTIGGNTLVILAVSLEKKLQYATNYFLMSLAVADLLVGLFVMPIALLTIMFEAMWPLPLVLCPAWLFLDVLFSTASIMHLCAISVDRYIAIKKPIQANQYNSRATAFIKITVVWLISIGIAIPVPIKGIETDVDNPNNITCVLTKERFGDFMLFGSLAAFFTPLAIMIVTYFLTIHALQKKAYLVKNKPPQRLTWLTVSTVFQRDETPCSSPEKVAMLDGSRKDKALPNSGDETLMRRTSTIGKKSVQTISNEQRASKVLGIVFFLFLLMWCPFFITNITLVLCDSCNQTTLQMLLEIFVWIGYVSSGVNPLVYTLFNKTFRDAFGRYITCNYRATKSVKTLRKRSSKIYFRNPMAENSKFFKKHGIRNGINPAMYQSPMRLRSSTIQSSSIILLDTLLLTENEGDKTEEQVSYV

In general, Ki refers to the equilibrium dissociation constant of an inhibitor or competing ligand from its target. As for `CN[C@@H](C)C(=O)c1ccc(C)cc1` [S-MEPH, S-mephedrone], the Ki was found to be 857 nM at 5-HT2B receptor, 3900 nM at 5-HT2C receptor and 1500 nM on sigma-1 receptor.
